“Also recorded” adds a separate entry of the source.

Data on 9 molecules can be found in patent US20230305023A1, “METHODS OF TREATMENT AND DIAGNOSTIC OF PATHOLOGICAL CONDITIONS ASSOCIATED WITH INTENSE STRESS” (INSERM (INSTITUT NATIONAL DE LA SANTÉ ET DE LA RECHERCHE …, priority 2020, published 2023).

For one data set, the system named is C57BL/6J mice. Description: Adaptive vs maladaptive (PTSD-like) fear memory, fear conditioning procedure. Format: in vivo. An excerpt: Surgical procedure. Male C57BL/6J mice {n=20 in Experiment 1 (FIGS. 3a-d), n=75 in Experiment 2 (FIG. 4), n=40 in Experiment 3 (FIGS. 5a-d) and n=48 in Experiment 4 (FIGS. 5e-h)} 3-4 months old (Charles River Laboratory, France) were used. Mice were surgically-implanted bilaterally 1 mm above the dorsal hippocampus (A/P, -2 mm; M/L, ±1.3 mm; D/V, 0.9 mm; relative to dura and bregma) following to Franklin and Paxinos’s mouse brain atlas (25) then allowed to recover for 8 days before the behavioral experiments.
Adaptive vs maladaptive (PTSD-like) fear memory. […] In contrast, Cort-injected mice will display a maladaptive (PTSD-like) memory attested by an abnormally high fear response to the irrelevant tone (cue-based hypermnesia) together with a decreased conditioned fear to the conditioning context (contextual amnesia) (5). • Memory tests - After fear conditioning, each animal was returned to its home cage and 24 h later, all mice were submitted to two memory tests during which freezing behavior, defined as a lack of any movement except for respiratory-related movements (29), was measured and used as an index of conditioned fear.
Drug injections. Immediately after the acquisition of fear conditioning, mice were randomly divided into groups firstly according to first their systemic injection of Cort and secondly their specific intra-hippocampal infusion. […] Vehicle (NaCl 0.9%, n=8), 2. […] Vehicles (aCSF + NaCl 0.9%, n=15), 2. […] Vehicles (aCSF + NaCl 0.9%, n=8), 2. […] Vehicles (aCSF + DMSO, n=12), 2.
PAI-1 and BDNF were diluted in artificial CSF (aCSF) and Tiplaxtinin in 1.6 % dimethyl sulfoxide (DMSO) and then diluted in aCSF. Bilateral infusions of 0.3 µl/side were administered into the dorsal hippocampus immediately after acquisition of fear conditioning at a constant rate (0.1 µl/min).

The next data set deals with PC12 cells. Briefly: PAI-1 expression in PC12 cells treated with corticosterone (qPCR, western blot). To be noted: Cort 100 and 1000 nM, 3 h. Type of data set: cell-based, rat. As for the experimental part:
Chemicals. […] Millipore (USA) provided the recombinant human BDNF (CAS Nb 218441-99-7, #GF029, 100 ng/side) and tPA inhibitor; stable recombinant mutant of human Type 1 Plasminogen Activator Inhibitor (PAI-1; CAS Nb: 140208-23-7, #528208, ranging from 30 to 240 ng/side) (16;18). The small-molecule inhibitor of PAI-1 activity Tiplaxtinin (PAI-039; CAS Nb: 393105-53-8, #1383, 5 ng/side) was provided by Axon MEDCHEM (The Netherlands).
Cell culture. PC12 cell line (ATCC CRL-1721) derived from a transplantable rat pheochromocytoma was used (14;16). […]
Quantitative PCR analysis. […] RNA was processed and analyzed using an adapted version of published methods (23). cDNA was synthesized from 2 µg of total RNA using RevertAid Premium Reverse Transcriptase (Fermentas, Thermo Fisher Scientific, USA) and primed with oligo-dT primers (Fermentas, Thermo Fisher Scientific, USA) and random primers (Fermentas, Thermo Fisher Scientific, USA). qPCR was perfomed using a LightCycler® 480 Real-Time PCR System (Roche, Meylan, France). qPCR reactions were done in duplicate for each sample, using transcript-specific primers, cDNA (4 ng) and LightCycler 480 SYBR Green I Master (Roche) in a final volume of 10 µl. The PCR data were exported and analyzed in a computer-based tool (Gene Expression Analysis Software Environment) developed at the Neurocentre Magendie (France). […]
(In general: Real-time PCR tracks product formation cycle by cycle.)

For data set [1], the system named is dorsal hippocampal slices. Briefly: Protein expression in dorsal hippocampal slices incubated with corticosterone (western blot). Type of data set: cell-based, Sprague-Dawley rats. As for the experimental part:
Briefly, adult male Sprague-Dawley rats (2-3 months old n=18, Charles River Laboratory, France) were used. Rats were then anesthetized with isoflurane and transcardially perfused with nearly frozen modified artificial cerebrospinal fluid (CSF) with 3 mM kynurenic acid. The modified CSF for perfusion contained: (in mM) 87 NaCl, 75 Sucrose, 25 Glucose, 5 KCl, 21 MgCl2, 0.5 CaCl2 and 1.25 NaH2PO4. After perfusion, the brains were quickly removed and sliced (300 µm) in the coronal plane using a vibratome (Campden Instruments, UK). Immediately after cutting, slices were stored for 40 min at 32° C. in CSF ((in mM): 130 NaCl, 11 Glucose, 2.5 KCl, 2.4 MgCl2, 1.2 CaCl2, 23 NaHCO3, 1.2 NaH2PO4), equilibrated with 95% O2 / 5% CO2 then stored at room temperature for the rest of the experiment. […] Dorsal hippocampi were isolated, and proteins were extracted as previously described (14;16).
Protein extraction from brain tissues and immunoblotting analysis. A detailed description of protein extraction and immunoblotting analysis has been reported previously (14-16;20;21). Briefly, protein sample extracts from PC12 cells and mouse and rat hippocampi were performed in RIPA buffer containing protease and phosphatase inhibitors (#P8340 and #P0044, Sigma, USA) before being subjected to immunoblotting experiments. […] Rabbit polyclonal anti-PAI-1 antibodies were from Lifespan Biosciences (LSBio#C81062, 1/1000, WA, USA) and Epitomics (#3917-1, 1/3000, CA, USA), anti-tPA (#T5600-05G; 1/5000) was from US Biologicals (MA, USA), anti-Erk1/2^MAPK (#06-182; 1/50000) was from Millipore (MA, USA), anti-Phospho-Erk1/2^MAPK (#9101S; 1/1000) was from CST (MA, USA). Rabbit monoclonal antibodies anti-Phospho-Erk1/2^MAPK (#4370; 1/5000) was from CST (MA, USA), anti-Phospho-TrkB (#2149-1; 1/5000) was from Epitomics (CA, USA), anti-TrkB (#610101; 1/2000) was from BD Biosciences (NJ, USA). Mouse monoclonal anti-Neuronal Class III β-Tubulin (TUJ1) (#MMS-435P; 1/20000) was from Eurogentec (Belgium), anti-α-tubulin (#N356, 1/50000) was from Amersham Life Sciences (Del, USA). CST provided secondary antibodies: anti-rabbit IgG, HRP-linked antibody (#7074, 1/5000) and anti-mouse IgG, HRP-linked antibody (#7076, 1/20000). In all experiments, βIII-tubulin or α-tubulin measures were used as a loading control. X-Ray films (Kodak, USA) were quantified by densitometry (optical density; OD) using a GS-800 scanner coupled with Quantity One software (Bio-Rad, CA, USA).
(In western blotting, separated proteins are transferred to a membrane and probed.)

The conditions of data set [2]: in vivo; cited from earlier work.
The conditions of data set [3]: cited from earlier work.
The next data set concerns rats. To be noted: cited from earlier work.
The next data set deals with nonhuman primates. To be noted: cited from earlier work.
For data set [4], the system named is TGF-B1-induced lung fibrosis. To be noted: in vivo; cited from earlier work.
Another data set concerns the target PAI-1 (Homo sapiens, UniProt P05121). To be noted: dual mechanism of action; cited from earlier work.

Sequence of PAI-1 (P05121 24-402, species assumed): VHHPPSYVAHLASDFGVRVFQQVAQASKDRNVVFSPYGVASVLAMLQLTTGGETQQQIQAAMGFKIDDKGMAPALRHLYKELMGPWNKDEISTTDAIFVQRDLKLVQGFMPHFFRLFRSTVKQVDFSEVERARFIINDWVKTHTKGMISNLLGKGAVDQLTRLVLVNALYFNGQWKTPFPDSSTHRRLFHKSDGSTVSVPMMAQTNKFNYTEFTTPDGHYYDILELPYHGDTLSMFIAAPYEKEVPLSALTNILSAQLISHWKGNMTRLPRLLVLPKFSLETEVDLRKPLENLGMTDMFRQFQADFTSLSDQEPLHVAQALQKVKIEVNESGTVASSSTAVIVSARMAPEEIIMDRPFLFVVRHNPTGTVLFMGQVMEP

As for `C[C@]12C[C@H](O)[C@H]3[C@@H](CCC4=CC(=O)CC[C@@]43C)[C@@H]1CC[C@@H]2C(=O)CO` [Cort, corticosterone], the PTSD-like memory impairments result in the data set on C57BL/6J mice (Cort 2 mg/kg i.p. immediately after conditioning) is “PTSD-like memory impairments appeared”. Moreover, the “expression of PAI-1 mRNA” value with PC12 cells (qPCR) is reported as “strongly increased”. The “expression of PAI-1 protein” value in the data set on PC12 cells (western blot) is on record as “strongly increased”. Further, the “tPA, P-TrkB and P-Erk1/2MAPK proteins” value is on record as “increase” in data set [1] (Cort 10 nM, 1 h after treatment) and “suppression of the increase” in data set [1] (Cort 1000 nM, after 3 h treatment). Besides, the PAI-1 protein entry in [1] (Cort 10 nM, 3 h after treatment) was “increase”; in data set [1] (Cort 1000 nM, 1 h after treatment), “early increase”.
As to `CNCCC(Oc1ccc(C(F)(F)F)cc1)c1ccccc1` (stereo not drawn) [fluoxetine], the “benefit in PTSD over placebo” value in data set [2] is “small to modest benefit”.
In the case of `O=C(COCC(=O)N1CCN(C(c2ccccc2)c2ccccc2)CC1)Nc1ccc(Cl)cc1C(=O)[O-].[Na+]` [TM5275], the oral pharmacokinetic profile result in data set [3] is given as “improved oral pharmacokinetic properties”. Also, the antithrombotic ability entry in the data set with rats and in the data set with nonhuman primates was “effective antithrombotic ability” throughout. Also, in [4], the TGF-B1-induced lung fibrosis entry is given as “blocks”.
On to `COc1ccc(C(CN(C)C)C2(O)CCCCC2)cc1` (stereo not drawn) [venlafaxine], for which the “benefit in PTSD over placebo” value in data set [2] is “small to modest benefit”.
`O=C(O)C(=O)c1cn(Cc2ccccc2)c2ccc(-c3ccc(OC(F)(F)F)cc3)cc12` [Tiplaxtinin, 1H-indole-3-acetic acid, a-oxo-1-(phenylmethyl)-5-(4-trifluoromethoxyphenyl)]: the “appearance of PTSD-like memory in Cort-treated animals” value in the data set with C57BL/6J mice (Tiplaxtinin 5 ng/side intra-hippocampal immediately after conditioning, Cort 2 mg/kg i.p., freezing tested 24 h later) was “prevented the appearance of PTSD-like memory; also recorded: normalizes traumatic memory”.
For `Fc1ccc([C@@H]2CCNC[C@H]2COc2ccc3c(c2)OCO3)cc1` [paroxetine], in [2], the “benefit in PTSD over placebo” value is on record as “small to modest benefit”.
Turning to `O=C(CCCCC(=O)Nc1scc(-c2cccs2)c1C(=O)O)Nc1scc(-c2cccs2)c1C(=O)O` [TM5007], in data set [3], the oral pharmacokinetic profile result is listed as “not ideal”.
In the case of `CCCCCc1c(-c2ccc3cc(OCc4nnn[nH]4)ccc3c2)n(Cc2ccccc2)c2ccccc12` [PAI-749, 1-benzyl-3-pentyl-2[-(1H-tetrazol-5-ylmethoxy)naphthalene-2-yl]-1Hindole], the PAI-1 activity result on PAI-1 is recorded as “neutralize PAI-1 activity”.

B1: mature BDNF: recombinant human BDNF, CAS 218441-99-7 (protein, UniProt P23560 19-247, looked up)
Neurotrophic factor BDNF …: APMKEANIRGQGGLAYPGVRTHGTLESVNGPKAGSRGLTSLADTFEHVIEELLDEDQKVRPNEENNKDADLYTSRVMLSSQVPLEPPLLFLLEEYKNYLDAANMSMRVRRHSDPARRGELSVCDSISEWVTAADKKTAVDMSGGTVTVLEKVPVSKGQLKQYFYETKCNPMGYTKEGCRGIDKRHWNSQCRTTQSYVRALTMDSKKRIGWRFIRIDTSCVCTLTIKRGR
With B1, the “reversal of the effect of PAI-1 on fear memory” value in the data set with C57BL/6J mice (mature BDNF 100 ng/side concomitant with PAI-1 240 ng/side, intra-hippocampal) was “completely reversed”.
